In one data set the target is human BACE1 (Homo sapiens, UniProt P56817). In words: Fluorescent kinetic assay: Evaluation of BACE-1 Binding Affinity of Test Compounds. The class given is biochemical. The note with it: 10 nM enzyme, 25 μM substrate WABC-6, 50 mM Na-Acetate pH 4.5, room temperature. A digest of the protocol: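 Run with 10 nM human BACE1 and 25 μM WABC-6 FRET peptide in 50 mM Na-acetate pH 4.5, 0.05% CHAPS, 25% PBS at room temperature. Fluorescence (ex 320/em 420 nm) was read every 40 sec for 30 min, and initial cleavage rates were taken from linear slopes across ≥10 inhibitor concentrations.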
Chain of human BACE1 (P56817 46-501): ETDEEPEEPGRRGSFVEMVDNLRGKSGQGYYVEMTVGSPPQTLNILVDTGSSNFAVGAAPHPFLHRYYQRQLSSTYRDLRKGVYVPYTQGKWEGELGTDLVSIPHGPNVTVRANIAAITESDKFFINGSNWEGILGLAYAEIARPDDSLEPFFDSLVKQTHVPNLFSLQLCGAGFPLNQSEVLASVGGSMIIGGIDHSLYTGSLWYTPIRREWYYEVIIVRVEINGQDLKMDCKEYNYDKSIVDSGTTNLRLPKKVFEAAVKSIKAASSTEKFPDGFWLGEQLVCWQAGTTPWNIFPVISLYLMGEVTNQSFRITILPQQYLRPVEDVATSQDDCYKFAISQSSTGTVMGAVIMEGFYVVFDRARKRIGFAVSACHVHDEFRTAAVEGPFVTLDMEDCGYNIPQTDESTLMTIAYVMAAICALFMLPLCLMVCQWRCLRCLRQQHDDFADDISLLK

Data on 36 molecules can be found in patent US7705030B2, “Amino-5-(5-membered)hetero-arylimidazolone compounds and the use thereof for β-secretase modulation” (Wyeth LLC, priority 2005, dated 2010).

As a reminder, the IC50 is the point on the concentration scale where inhibition reaches its midpoint. Read a high IC50 as weaker potency. In general, melting point refers to the temperature of the solid-liquid transition.

As for `CN1C(=O)C(c2cc[nH]c2)(c2cccc(O)c2)N=C1N` (stereo not drawn) [Example 59, 2-amino-5-(3-hydroxyphenyl)-5-(1H-pyrrol-3-yl)-3-methyl-3,5-dihydro-4H-imidazol-4-one], the melting point fell in the range of 142 to 145 °C. The molecule further displayed an IC50 on human BACE1 of more than 1000 nM.
The corresponding values for `CN1C(=O)C(c2cccc(OCc3ccccc3)c2)(c2cnn(CC(F)(F)F)c2)N=C1N` (stereo not drawn) [Example 92, 2-amino-5-[3-(benzyloxy)phenyl]-3-methyl-5-[1-(2,2,2-trifluoroethyl)-1H-pyrazol-4-yl]-3,5-dihydro-4H-imidazol-4-one] are 85 to 87 °C and more than 1000 nM.
`CCCOc1cccc(C2(c3cc(C(=O)CC)n(CC)c3)N=C(N)N(C)C2=O)c1` (stereo not drawn) [Example 132, 2-Amino-5-(1-ethyl-5-propionyl-1H-pyrrol-3-yl)-3-methyl-5-(3-propoxyphenyl)-3,5-dihydro-4H-imidazol-4-one] registered a melting point of 95 °C. Besides, the 50% inhibitory concentration (IC50) on human BACE1 was 10 to 100 nM.
The corresponding values for `CN1C(=O)C(c2cccc(OCC3CC3)c2)(c2cnn(CC(F)(F)F)c2)N=C1N` (stereo not drawn) [Example 71, 2-amino-5-[3-(cyclopropylmethoxy)phenyl]-3-methyl-5-[1-(2,2,2-trifluoroethyl)-1H-pyrazol-4-yl]-3,5-dihydro-4H-imidazol-4-one] are 78 to 80 °C and 110 to 1000 nM.
The corresponding values for `CCC(=O)c1cc(C2(c3cccc(-c4cccc(Cl)c4)c3)N=C(N)N(C)C2=O)cn1CC(F)(F)F` (stereo not drawn) [Example 204] are 108 to 110 °C and 10 to 100 nM.
The corresponding values for `CN1C(=O)C(c2cccc(-c3cccnc3F)c2)(c2cnn(CCC(C)(C)C)c2)N=C1N` (stereo not drawn) [Example 101] are 100 to 103 °C and 10 to 100 nM.
`CN1C(=O)C(c2cccc(-c3cncnc3)c2)(c2csc(Cl)c2)N=C1N` (stereo not drawn) [Example 32] had a melting point of 236 to 240 °C. Moreover, the half-maximal inhibitory concentration (IC50) at human BACE1 lay in the range of 10 to 100 nM.
The molecule `CN1C(=O)C(c2ccsc2)(c2cccc(-c3cccnc3F)c2)N=C1N` (stereo not drawn) [Example 34] displayed a melting point of 213 °C. Further, the IC50 at human BACE1 is 10 to 100 nM.
`CCC(=O)c1cc(C2(c3cccc(-c4ccc(F)c(Cl)c4)c3)N=C(N)N(C)C2=O)cn1CC(F)(F)F` (stereo not drawn) [Example 205] displayed a melting point of 107 to 108 °C. For the same molecule, the IC50 at human BACE1 lay within 10 to 100 nM.
The molecule `CCCC(=O)Nc1cccc(C2(c3cc(C(=O)CC)n(CC)c3)N=C(N)N(C)C2=O)c1` (stereo not drawn) [Example 129, N-{3-[2-amino-4-(1-ethyl-5-propionyl-1H-pyrrol-3-yl)-1-methyl-5-oxo-4,5-dihydro-1H-imidazol-4-yl]-phenyl}-butyramide] displayed a melting point of 201 to 205 °C. The half-inhibitory concentration (IC50) at human BACE1 lay in the range of 110 to 1000 nM.
For `COC(=O)c1cc(C2(c3cccc(-c4cccc(C#N)c4)c3)N=C(N)N(C)C2=O)cn1CCF` (stereo not drawn) [Example 194], in that order: 98 to 101 °C and 10 to 100 nM.
On to `CCC(=O)c1cc(C2(c3cccc(-c4cncnc4)c3)N=C(N)N(C)C2=O)cs1` (stereo not drawn) [Example 116, 2-Amino-3-methyl-5-(5-propionyl-thiophen-3-yl)-5-(3-pyrimidin-5-yl-phenyl)-3,5-dihydro-imidazol-4-one], for which the melting point was 167 to 172 °C. At human BACE1, this molecule gave a concentration for half-maximal inhibition (IC50) of 10 to 100 nM.
The molecule `CCCCCOc1cccc(C2(c3cc(C(=O)CC)n(CC)c3)N=C(N)N(C)C2=O)c1` (stereo not drawn) [Example 133] gave a melting point of 70 °C. The molecule also displayed an IC50 at human BACE1 of 10 to 100 nM.
For `CCC(=O)c1cc(C2(c3cccc(NC(=O)COC)c3)N=C(N)N(C)C2=O)cn1CC` (stereo not drawn) [Example 131, N-{3-[2-amino-4-(1-ethyl-5-propionyl-1H-pyrrol-3-yl)-1-methyl-5-oxo-4,5-dihydro-1H-imidazol-4-yl]-phenyl}-2-methoxy-acetamide], in that order: 95 to 115 °C and 10 to 100 nM.
For `CN1C(=O)C(c2cccc(-c3cncnc3)c2)(c2cc(C#N)n(CCF)c2)N=C1N` (stereo not drawn) [Example 228], in that order: 193 to 194 °C and 110 to 1000 nM.
The corresponding values for `COC(=O)c1cc(C2(c3ccc(F)c(-c4cccnc4F)c3)N=C(N)N(C)C2=O)cn1CCF` (stereo not drawn) [Example 122] are 127 to 128 °C and 10 to 100 nM.
`COc1cccc(-c2cc(C3(c4cnn(C(C)C)c4)N=C(N)N(C)C3=O)ccc2F)c1` (stereo not drawn) [Example 98] gave a melting point of 112 to 114 °C. The same molecule yielded an IC50 on human BACE1 of 10 to 100 nM.
On to `CCn1ccc(C2(c3cccc(-c4cncnc4)c3)N=C(N)N(C)C2=O)c1` (stereo not drawn) [Example 52, 2-amino-5-(1-ethyl-1H-pyrrol-3-yl)-3-methyl-5-(3-pyrimidin-5-ylphenyl)-3,5-dihydro-4H-imidazol-4-one], for which the melting point is 100 to 102 °C. This molecule also returned an IC50 at human BACE1 of 110 to 1000 nM.
For `CCC(=O)c1cc(C2(c3cccc(-c4cccnc4F)c3)N=C(N)N(C)C2=O)cn1CC` (stereo not drawn) [Example 155], in that order: 126 to 128 °C and 10 to 100 nM.
For `COC(=O)c1cc(C2(c3ccc(F)c(-c4cncnc4)c3)N=C(N)N(C)C2=O)cn1CCF` (stereo not drawn) [Example 118, Methyl 4-[2-Amino-4-(4-fluoro-3-pyrimidinyl-5-phenyl)-1-methyl-5-oxo-4,5-dihydro-1H-imidazol-4-yl]-1-(2-fluoroethyl)-1H-pyrrole-2-carboxylate], in that order: 88 to 90 °C and 10 to 100 nM.
With `CN1C(=O)C(c2cccc(-c3cncnc3)c2)(c2cc(C#N)n(C)c2)N=C1N` (stereo not drawn) [Example 225, 4-[2-Amino-1-methyl-5-oxo-4-(3-pyrimidin-5-ylphenyl)-4,5-dihydro-1H-imidazol-4-yl]-1-methyl-1H-pyrrole-2-carbonitrile], the melting point was in the range of 214 to 225 °C. At human BACE1, this molecule had a half-maximal inhibitory concentration (IC50) of 110 to 1000 nM.
`COC(=O)c1cc(C2(c3cccc(-c4cc(C#N)ccc4F)c3)N=C(N)N(C)C2=O)cn1CCF` (stereo not drawn) [Example 195] showed a melting point of 147 to 150 °C. The molecule also displayed a half-maximal inhibitory concentration (IC50) on human BACE1 of 10 to 100 nM.
With `CN1C(=O)C(c2cccc(-c3cccnc3F)c2)(c2cnn(CCF)c2)N=C1N` (stereo not drawn) [Example 68, 2-amino-5-[1-(2-fluoroethyl)-1H-pyrazol-4-yl]-5-[3-(2-fluoropyridin-3-yl)phenyl]-3-methyl-3,5-dihydro-4H-imidazol-4-one], the melting point is 195 to 197 °C. Besides, the IC50 at human BACE1 is 10 to 100 nM.
Regarding `CC(C)NCc1cc(C2(c3cccc(-c4cccnc4F)c3)N=C(N)N(C)C2=O)cn1CCF` (stereo not drawn) [Example 236], the melting point is 98 to 99 °C. Also, the half-inhibitory concentration (IC50) on human BACE1 was more than 1000 nM.
For `CCn1cc([C@]2(c3ccc(F)c(-c4cccnc4F)c3)N=C(N)N(C)C2=O)cc1C(=O)OC` [Example 186, Methyl 4-{(4S)-2-amino-4-[4-fluoro-3-(2-fluoropyridin-3-yl)phenyl]-1-methyl-5-oxo-4,5-dihydro-1H-imidazol-4-yl-}-ethyl-1H-pyrrole-2-carboxylate], in that order: 114 to 117 °C and 10 to 100 nM.
The molecule `CCCCn1cc(C2(c3cccc(-c4cncnc4)c3)N=C(N)N(C)C2=O)cn1` (stereo not drawn) [Example 6, 2-Amino-5-(1-butyl-1H-pyrazol-4-yl)-3-methyl-5-(3-pyrimidin-5-ylphenyl)-3,5-dihydro-4H-imidazol-4-one] yielded a melting point of 94 to 98 °C. In addition, at human BACE1, the IC50 is 10 to 100 nM.
For `Cc1sccc1C1(c2cccc(-c3cncnc3)c2)N=C(N)N(C)C1=O` (stereo not drawn) [Example 27, 2-Amino-5-(2-methylthien-3-yl)-3-methyl-5-(3-pyrimidin-5-ylphenyl)-3,5-dihydro-4H-imidazol-4-one], in that order: 154 to 159 °C and 110 to 1000 nM.
In turn, `COC(=O)c1cc(C2(c3ccc(F)c(-c4cncnc4)c3)N=C(N)N(C)C2=O)cn1CC(F)(F)F` (stereo not drawn) [Example 121] returned a melting point of 182 to 184 °C. Also, the 50% inhibitory concentration (IC50) on human BACE1 was in the range of 10 to 100 nM.
For `Cc1nn(CC(F)(F)F)cc1C1(c2cccc(-c3cccnc3F)c2)N=C(N)N(C)C1=O` (stereo not drawn) [Example 11, 2-Amino-5-[3-(2-fluoropyridin-3-yl)phenyl]-3-methyl-5-[3-methyl-1-(2,2,2-trifluoroethyl)-1H-pyrazol-4-yl]-3,5-dihydro-4H-imidazol-4-one], in that order: 128 to 132 °C and 110 to 1000 nM.
For `CN1C(=O)C(c2ccsc2)(c2cccc(-c3cnccn3)c2)N=C1N` (stereo not drawn) [Example 33], the melting point was found to be 223 °C. The same molecule had an IC50 on human BACE1 of 10 to 100 nM.
The corresponding values for `CCn1cc(C2(c3cccc(-c4cccnc4F)c3)N=C(N)N(C)C2=O)cc1C(=O)C1CCCCC1` (stereo not drawn) [Example 171] are 94 to 100 °C and 10 to 100 nM.
For `CC(C)OC(=O)c1cc(C2(c3ccc(F)c(-c4cccnc4F)c3)N=C(N)N(C)C2=O)cn1CCF` (stereo not drawn) [Example 124], the melting point lay within 117 to 118 °C. Also, on human BACE1, the IC50 lay in the range of 110 to 1000 nM.
The corresponding values for `CCC(=O)c1cc(C2(c3cccc(OCCC(C)(C)C)c3)N=C(N)N(C)C2=O)cn1CC` (stereo not drawn) [Example 134] are 93 °C and 110 to 1000 nM.
As to `CN1C(=O)C(c2ccc(F)c(-c3cncnc3)c2)(c2cnn(CC(F)(F)F)c2)N=C1N` (stereo not drawn) [Example 8, 2-Amino-5-(4-fluoro-3-pyrimidin-5-ylphenyl)-3-methyl-5-[1-(2,2,2-trifluoroethyl)-1H-pyrazol-4-yl]-3,5-dihydro-4H-imidazol-4-one], the melting point fell in the range of 115 to 117 °C. This molecule returned an IC50 on human BACE1 of 110 to 1000 nM.
Regarding `CN1C(=O)C(c2cccc(-c3cncnc3)c2)(c2cnn(CCC3CCCCC3)c2)N=C1N` (stereo not drawn) [Example 107], the melting point lay in the range of 102 to 105 °C. The molecule also registered an IC50 on human BACE1 of 10 to 100 nM.
The corresponding values for `CCC(=O)c1cc(C2(c3cccc(-c4cccnc4F)c3)N=C(N)N(C)C2=O)cn1Cc1ccccc1` (stereo not drawn) [Example 181] are 93 to 96 °C and 10 to 100 nM.
